Measurements as given in paper PMC3353862.
pIC50: −log10 of the molar value. Values after ≈ are worked out from the molar mass of the structure shown.

Tests used:
E. coli tolC mutants = assay: Broth microdilution MIC testing; type: cell-based, Escherichia coli; details: for MIC E. coli tolC: E. coli tolC mutants; for MIC: Escherichia coli, read-out: MIC E. coli tolC
[1] = system: E. coli modified with PMBN; assay: Broth microdilution MIC testing; type: cell-based, Escherichia coli; details: for MIC E. coli +PMBP: E. coli modified with PMBN; for MIC: Escherichia coli, read-out: MIC E. coli +PMBP
H. influenzae = assay: Broth microdilution MIC testing; type: cell-based, Haemophilus influenzae; details: for MIC H. flu: H. influenzae; for MIC: Haemophilus influenzae, read-out: MIC H. flu
M. catarrhalis = assay: Broth microdilution MIC testing; type: cell-based, Moraxella catarrhalis; details: for MIC: Moraxella catarrhalis
[2] = system: bacterial protein synthesis (aminoacylation/translation system); assay: aminoacylation/translation (A/T) assay; type: biochemical; details: for pIC50: A/T assay, Table 1, read-out: IC50; for fold reduction of potency/biochemical activity in the A/T assay: relative to 321521
S. aureus = assay: Broth microdilution MIC testing; type: cell-based, Staphylococcus aureus; details: for MIC: Staphylococcus aureus, read-out: MIC S. aureus
S. pneumoniae = assay: Broth microdilution MIC testing; type: cell-based, Streptococcus pneumoniae; details: for MIC S. pneumo: S. pneumoniae; for MIC: Streptococcus pneumoniae, read-out: MIC S. pneumo
E. faecalis = assay: Broth microdilution MIC testing; type: cell-based, Enterococcus faecalis; details: for MIC E. fae: E. faecalis; for MIC: Enterococcus faecalis, read-out: MIC E. fae

| SMILES | MIC E. coli tolC (E. coli tolC mutants) [µg/mL] | MIC E. coli +PMBP [1] [µg/mL] | MIC H. flu (H. influenzae) [µg/mL] | MIC M. cat (M. catarrhalis) [µg/mL] | pIC50 [2] | MIC S. aureus (S. aureus) [µg/mL] | MIC S. pneumo (S. pneumoniae) [µg/mL] | MIC E. fae (E. faecalis) [µg/mL] | MIC (E. coli tolC mutants) [µg/mL] | MIC [1] [µg/mL] | MIC (H. influenzae) [µg/mL] | MIC (M. catarrhalis) [µg/mL] | MIC (S. aureus) [µg/mL] | MIC (S. pneumoniae) [µg/mL] | MIC (E. faecalis) [µg/mL] | fold reduction of potency/biochemical activity in the A/T assay [2] | biochemical activity in the A/T assay [2] |
| --- | --- | --- | --- | --- | --- | --- | --- | --- | --- | --- | --- | --- | --- | --- | --- | --- | --- |
| COc1ccc(CN2CCc3nc(-c4ccccn4)[nH]c(=O)c3C2)cc1Cn1cccn1 [Compound 323234] | > 128 | 64 (≈ 149 µM) | 128 (≈ 299 µM) | 16 (≈ 37.3 µM) | 5.24 | > 128 | 128 (≈ 299 µM) | 128 (≈ 299 µM) |  |  |  |  |  |  |  |  |  |
| COc1ccc(CN2CCc3nc(-c4ccccn4)[nH]c(=O)c3C2)c(OC)c1O [Compound 323236] | > 128 | > 128 | > 128 | > 128 | 5.11 | > 128 | > 128 | > 128 |  |  |  |  |  |  |  |  |  |
| O=c1[nH]c(-c2ccccn2)nc2c1CN(Cc1cccc(F)c1F)CC2 [Compound 323237] | 8 (≈ 22.6 µM) | 16 (≈ 45.2 µM) | 4 (≈ 11.3 µM) | 0.5 (≈ 1.41 µM) | 5.55 | 32 (≈ 90.3 µM) | 8 (≈ 22.6 µM) | 64 (≈ 181 µM) |  |  |  |  |  |  |  |  |  |
| CC(=O)Oc1ccc(CN2CCc3nc(-c4ccccn4)[nH]c(=O)c3C2)cc1 [Compound 323238] | > 128 | > 128 | 32 (≈ 85 µM) | 16 (≈ 42.5 µM) | 5.68 | > 128 | > 128 | > 128 |  |  |  |  |  |  |  |  |  |
| CCOc1ccc(CN2CCc3nc(-c4ccccn4)[nH]c(=O)c3C2)cc1Cn1ccnc1 [Compound 323239] | 64 (≈ 145 µM) | 128 (≈ 289 µM) | 64 (≈ 145 µM) | 8 (≈ 18.1 µM) | 5.52 | > 128 | > 128 | 64 (≈ 145 µM) |  |  |  |  |  |  |  |  |  |
| O=C(c1ccc(Cl)cc1)N1CCc2nc(-c3ccccn3)[nH]c(=O)c2C1 [Compound 323353] |  |  |  |  | 5.77 |  |  |  | 128 (≈ 349 µM) | 128 (≈ 349 µM) | 32 (≈ 87.2 µM) | 8 (≈ 21.8 µM) | > 128 | 128 (≈ 349 µM) | > 128 |  |  |
| O=c1[nH]c(-c2cnccn2)nc2c1CN(Cc1ccc(Cl)cc1)CC2 [Compound 323354] |  |  |  |  | 4.67 |  |  |  | > 128 | > 128 | > 128 | 16 (≈ 45.2 µM) | > 128 | > 128 | > 128 | tenfold |  |
| Clc1ccc(CN2CCc3nc(-c4ccccn4)ncc3C2)cc1 [Compound 323355] |  |  |  |  | 4.49 |  |  |  | 64 (≈ 190 µM) | 64 (≈ 190 µM) | 64 (≈ 190 µM) | 4 (≈ 11.9 µM) | 128 (≈ 380 µM) | 64 (≈ 190 µM) | > 128 |  |  |
| O=C(Cc1ccc(Cl)cc1)N1CCc2nc(-c3ccccn3)[nH]c(=O)c2C1 [Compound 323369] |  |  |  |  | 5.70 |  |  |  | 64 (≈ 168 µM) | 32 (≈ 84 µM) | 16 (≈ 42 µM) | 4 (≈ 10.5 µM) | 128 (≈ 336 µM) | 64 (≈ 168 µM) | 64 (≈ 168 µM) |  |  |
| Cc1cccc(-c2nc3c(c(=O)[nH]2)CN(Cc2ccc(Cl)cc2)CC3)n1 [Compound 332052] |  |  |  |  | < 3.52 |  |  |  | > 128 | > 128 | > 64 | 32 (≈ 87.2 µM) | > 128 | > 128 | > 128 |  | completely abolished activity |
| O=c1[nH]c(-c2ccco2)nc2c1CN(Cc1ccc(Cl)cc1)CC2 [Compound 332053] |  |  |  |  | < 3.52 |  |  |  | > 128 | > 128 | > 64 | > 128 | > 128 | > 128 | > 128 |  | abolished all biochemical activity |
| O=c1nc(-c2ccccn2)nc2ccn(Cc3ccc(Cl)cc3)cc1-2 [Compound 332055] |  |  |  |  | 4.79 |  |  |  | 128 (≈ 367 µM) | 64 (≈ 183 µM) | 16 (≈ 45.9 µM) | 32 (≈ 91.7 µM) | > 128 | 128 (≈ 367 µM) | 64 (≈ 183 µM) |  |  |
| O=c1[nH]c(-c2cccs2)nc2c1CN(Cc1ccc(Cl)cc1)CC2 [Compound 332057] |  |  |  |  | 4.00 |  |  |  | > 128 | > 128 | > 128 | > 128 | > 128 | > 128 | > 128 | over 40 fold |  |
